Experimental data reported in the supplement of paper PMC8882468.

Key:
Assay in all cases: CTG-3D luminescence at 96 h relative to day-0 seeding control (ratio to day 0); higher = more growth / less cytotoxicity; PDxO 3D drug screen, 96 h, CTG-3D normalised to day-0 seeding control.
[1] = tested on: HCI-017.E2 (organoid from an ER-positive breast cancer xenograft)
[2] = tested on: HCI-001 (organoid from a triple-negative breast cancer xenograft)
[3] = tested on: HCI-002 (organoid from a triple-negative breast cancer xenograft)
[4] = tested on: MDA-MB-231
[5] = tested on: HCI-023 (organoid from a triple-negative breast cancer xenograft)

CCN(c1cc(C#CCN2CCOCC2)cc(C(=O)NCc2c(C)cc(C)[nH]c2=O)c1C)[C@H]1CC[C@H](N(C)CCOC)CC1
CTG-3D luminescence at 96 h
Details | 12.5 pM | 0.00025 µM | 0.005 µM | 0.1 µM | 1 µM | 10 µM | 100 µM | 625 fM
[1] | 1.57 | 1.65 | 1.91 | 1.81 | 1.72 | 2.01 | 1.5 | 2.01
[4] | 4.49 | 4.37 | 4.44 | 4.29 | 4.31 | 4.37 | 4.39 | 4.51

CTG-3D luminescence at 96 h
Details | 12.5 pM | 0.00025 µM | 0.005 µM | 0.1 µM | 1 µM | 10 µM | 100 µM | 625 fM
[1], days in culture: 85 | 1.88 | 2.36 | 2.01 | 2.07 | 1.45 | 1.61 | 1.9 | 1.77
[2], days in culture: 240 | 1.66 | 1.2 | 1.34 | 1.12 | 1.48 | 1.35 | 1.6 | 1.15
[2], days in culture: 260 | 2.3 | 1.19 | 2.11 | 1.83 | 1.85 | 1.89 | 1.19 | 1.77
[2], days in culture: 269 | 1.6 | 1.57 | 1.22 | 1.27 | 1.24 | 1.91 | 1.29 | 1.58
[2], days in culture: 327 | 2.1 | 1.96 | 2.09 | 1.94 | 1.79 | 1.53 | 2.14 | 2.05
[2], days in culture: 346 | 1.71 | 1.33 | 1.21 | 1.4 | 1.5 | 1.62 | 1 | 1.32
[2], days in culture: 364 | 1.74 | 1.34 | 1.76 | 1.19 | 1.17 | 1.85 | 1.41 | 1.88
[3], days in culture: 62 | 3.56 | 3.06 | 4.04 | 3.68 | 3.25 | 3.56 | 3.84 | 3.54
[3], days in culture: 82 | 3.83 | 3.88 | 2.98 | 3.77 | 3.86 | 3.46 | 2.82 | 3.6
[3], days in culture: 91 | 3.18 | 2.62 | 2.38 | 2.44 | 2.39 | 2.58 | 2.11 | 3.17
[3], days in culture: 191 | 3.6 | 3.27 | 3.28 | 3.84 | 3.37 | 3.62 | 3.54 | 3.51
[3], days in culture: 209 | 2.93 | 3.11 | 2.59 | 2.63 | 2.93 | 2.64 | 2.79 | 2.8
[3], days in culture: 227 | 4.96 | 4.84 | 4.63 | 5.11 | 4.67 | 5.77 | 4.2 | 5.52
[5], days in culture: 111 | 1.69 | 1.38 | 1.47 | 1.39 | 1.14 | 1.42 | 0.673 | 2.1
[5], days in culture: 128 | 1.51 | 1.63 | 1.57 | 1.99 | 1.77 | 2.02 | 1.09 | 1.5

CS(=O)(=O)c1ccc(C(=O)Nc2ccc(Cl)c(-c3ccccn3)c2)c(Cl)c1 [vismodegib]
CTG-3D luminescence at 96 h
Details | 12.5 pM | 0.00025 µM | 0.005 µM | 0.1 µM | 1 µM | 10 µM | 100 µM | 625 fM
[1] | 1.53 | 1.93 | 2.01 | 1.8 | 1.65 | 1.67 | 0.824 | 1.88
[4] | 4.58 | 4.44 | 4.54 | 4.53 | 4.66 | 4.73 | 4 | 4.62

CTG-3D luminescence at 96 h
Details | 12.5 pM | 0.00025 µM | 0.005 µM | 0.1 µM | 1 µM | 10 µM | 100 µM | 625 fM
[1], days in culture: 85 | 2.49 | 2.32 | 2.96 | 2.5 | 2.32 | 1.76 | 0.842 | 2.14
[2], days in culture: 240 | 1.85 | 1.26 | 0.998 | 1.03 | 1.5 | 1.19 | 0.836 | 2.27
[2], days in culture: 260 | 2.49 | 1.08 | 2.27 | 1.74 | 1.57 | 1.91 | 0.909 | 1.99
[2], days in culture: 269 | 1.57 | 1.89 | 1.55 | 1.36 | 1.13 | 1.83 | 0.861 | 1.51
[2], days in culture: 327 | 2.09 | 1.61 | 2.29 | 1.87 | 1.93 | 1.2 | 1.19 | 1.94
[2], days in culture: 346 | 1.82 | 1.38 | 1.23 | 1.34 | 1.47 | 1.65 | 1.35 | 1.34
[2], days in culture: 364 | 1.66 | 1.26 | 1.67 | 1.34 | 1.47 | 1.71 | 1.1 | 1.64
[3], days in culture: 62 | 2.81 | 2.88 | 3.64 | 3.26 | 3.05 | 2.96 | 0.385 | 3.01
[3], days in culture: 82 | 3.27 | 3.52 | 2.41 | 2.65 | 2.51 | 2.14 | 0.287 | 2.86
[3], days in culture: 91 | 2.97 | 2.4 | 2.04 | 2.06 | 1.77 | 2.07 | 0.194 | 2.53
[3], days in culture: 191 | 3.3 | 3.25 | 3.31 | 3.23 | 3.62 | 2.89 | 0.429 | 3.41
[3], days in culture: 209 | 2.66 | 2.86 | 2.57 | 2.3 | 2.77 | 2.31 | 0.207 | 2.71
[3], days in culture: 227 | 4.93 | 4.4 | 3.59 | 4.14 | 3.49 | 4.34 | 0.447 | 5.19
[5], days in culture: 111 | 1.92 | 1.62 | 1.41 | 1.48 | 1.15 | 1.34 | 0.248 | 1.6
[5], days in culture: 128 | 1.29 | 1.4 | 1.39 | 1.46 | 1.31 | 1.86 | 0.552 | 1.67

C/C=C1\NC(=O)[C@H]2CSSCC/C=C/[C@H](CC(=O)N[C@H](C(C)C)C(=O)N2)OC(=O)[C@H](C(C)C)NC1=O [romidepsin]
CTG-3D luminescence at 96 h
Details | 12.5 pM | 0.00025 µM | 0.005 µM | 0.1 µM | 1 µM | 10 µM | 100 µM | 625 fM
[1] | 1.34 | 1.36 | 0.657 | 0.298 | 0.151 | 0.033 | -0.0104 | 1.17
[4] | 3.87 | 3.12 | 0.22 | 0.0791 | 0.0421 | -0.000441 | -0.0309 | 4.02

CTG-3D luminescence at 96 h
Details | 12.5 pM | 0.00025 µM | 0.005 µM | 0.1 µM | 1 µM | 10 µM | 100 µM | 625 fM
[1], days in culture: 85 | 2.46 | 2.08 | 1.87 | 0.329 | 0.2 | 0.0715 | -0.00898 | 2.18
[2], days in culture: 240 | 1.85 | 1.11 | 0.504 | 0.308 | 0.442 | 0.0301 | -0.0763 | 1.57
[2], days in culture: 260 | 2.41 | 0.948 | 1.41 | 0.615 | 0.865 | 0.141 | -0.0313 | 1.64
[2], days in culture: 269 | 1.82 | 1.72 | 0.783 | 0.423 | 0.38 | 0.00899 | -0.0103 | 1.64
[2], days in culture: 327 | 1.6 | 1.01 | 0.868 | 0.329 | 0.501 | -0.124 | -0.199 | 1.75
[2], days in culture: 346 | 1.68 | 1.28 | 0.579 | 0.303 | 0.317 | -0.107 | -0.155 | 1.21
[2], days in culture: 364 | 1.68 | 1.04 | 0.67 | 0.274 | 0.349 | 0.0111 | -0.0729 | 1.63
[3], days in culture: 62 | 3.13 | 2.76 | 0.0634 | -0.0198 | -0.0112 | -0.0609 | -0.0931 | 3.1
[3], days in culture: 82 | 3.16 | 3.38 | 0.0989 | 0.0435 | 0.0464 | -0.0117 | -0.0289 | 2.85
[3], days in culture: 91 | 2.94 | 2.73 | 0.0516 | 0.028 | 0.0172 | 0.000373 | -0.0143 | 2.7
[3], days in culture: 191 | 3.33 | 3.23 | -0.0284 | -0.0636 | -0.0937 | -0.0909 | -0.148 | 3.22
[3], days in culture: 209 | 2.88 | 2.68 | 0.0167 | -0.00615 | -0.0397 | -0.0225 | -0.0845 | 2.84
[3], days in culture: 227 | 5.16 | 4.82 | 0.108 | 0.0548 | 0.0335 | 0.0109 | -0.0188 | 5.69
[5], days in culture: 111 | 1.65 | 1.37 | 0.46 | 0.0304 | 0.0241 | -0.00341 | -0.0106 | 1.9
[5], days in culture: 128 | 1.66 | 1.55 | 0.343 | 0.104 | 0.0518 | 0.00597 | -0.00382 | 1.556
